Laboratory results taken from patent US7501410B2, “Methods of inhibiting BTK and SYK protein kinases” (Roche Palo Alto LLC, priority 2006, dated 2009).

What was measured:
[1] = biological target: T1, Bruton's Tyrosine Kinase (Btk) (Homo sapiens, UniProt Q06187); experiment: Determination of IC50 of Bruton's Tyrosine Kinase (Btk) inhibition, 33P filtration assay; type: biochemical; settings: His-tagged full-length Btk, 100 μM ATP
T1 construct: 5-10 nM Btk enzyme (His-tagged, full-length); His tag
Method in brief: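 Full-length His-tagged Btk (5-10 nM) preincubated 10 min at RT with compounds, then 30 min at 30° C with 30 μM biotinylated SH2 peptide, 100 μM ATP plus ^33P ATP, Mn/Mg in imidazole buffer pH 7.2. Product captured on streptavidin beads, counted by scintillation; 10-point half-log IC50 from 100 μM, background without substrate.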

Ramos cells = experiment: Inhibition of B-cell activation, B cell FLIPR assay in Ramos cells; type: cell-based; settings: Homo sapiens, anti-IgM stimulated intracellular calcium increase
Excerpt: Inhibition of B-cell Activation—B Cell FLIPR Assay in Ramos Cells
The B cell FLIPR assay is a cell based functional method of determining the effect of potential inhibitors of the intracellular calcium increase from stimulation by an anti-IgM antibody. Ramos cells (human Burkitt's lymphoma cell line. ATCC-No. CRL-1596) were cultivated in Growth Media (described below). One day prior to assay, Ramos cells were resuspended in fresh growth media (same as above) and set at a concentration of 0.5×10^6/mL in tissue culture flasks. On day of assay, cells were counted and set at a concentration of 1×10^6/mL in growth media supplemented with 1 μM FLUO-3 AM(TefLabs Cat-No. 0116, prepared in anhydrous DMSO and 10% Pluronic acid) in a tissue culture flask, and incubated at 37° C. (4% CO2) for 1 h. To remove extracellular dye, cells were collected by centrifugation (5 min, 1000 rpm), resuspended in FLIPR buffer (described below) at 1×10^6 cells/mL and then dispensed into 96-well poly-D-lysine coated black/clear plates (BD Cat-No. 356692) at 1×10^5 cells per well. Test compounds at seven concentrations ranging from 100 μM to 0.03 μM were added, and allowed to incubate with cells for 30 min at RT. Ramos cell Ca^2+ signaling was stimulated by the addition of 10 μg/mL anti-IgM (Southern Biotech, Cat-No. 2020-01) and measured on a FLIPR (Molecular Devices, captures images of 96 well plates using a CCD camera with an argon laser at 480 nm excitation).
Growth Medium: RPMI 1640 medium with L-glutamine (Invitrogen, Cat-No. 61870-010), 10% Fetal Bovine Serum (FBS, Summit Biotechnology Cat-No. FP-100-05); 1 mM Sodium Pyruvate (Invitrogen Cat. No. 11360-070).
FLIPR buffer: HBSS (Invitrogen, Cat-No. 141175-079),2 mM CaCl2 (Sigma Cat-No. C-4901), HEPES (Invitrogen, Cat-No. 15630-080), 2.5 mM Probenecid (Sigma, Cat-No. P-8761), 0.1% BSA (Sigma, Cat-No. A-7906), 11 mM Glucose (Sigma, Cat-No. G-7528).
In order to achieve the highest final assay concentration of 100 μM, 24 μL of 10 mM compound stock solution (made in DMSO) is added directly to 576 μL of FLIPR buffer. The test compounds are diluted in FLIPR Buffer (using Biomek 2000 robotic pipettor) resulting in the following dilution scheme: vehicle, 1.00×10^−4 M, 1.00×10^−5, 3.16×10^−6, 1.00×10^−6, 3.16×10^−7, 1.00×10^−7, 3.16×10^−8.
Intracellular increases in calcium were reported using a max-min statistic (subtracting the resting baseline from the peak caused by addition of the stimulatory antibody using a Molecular Devices FLIPR control and statistic exporting software. The IC50 was determined using a non-linear curve fit (GraphPad Prism software). Representative results are in Table 1.

T1 sequence (Q06187 whole entry): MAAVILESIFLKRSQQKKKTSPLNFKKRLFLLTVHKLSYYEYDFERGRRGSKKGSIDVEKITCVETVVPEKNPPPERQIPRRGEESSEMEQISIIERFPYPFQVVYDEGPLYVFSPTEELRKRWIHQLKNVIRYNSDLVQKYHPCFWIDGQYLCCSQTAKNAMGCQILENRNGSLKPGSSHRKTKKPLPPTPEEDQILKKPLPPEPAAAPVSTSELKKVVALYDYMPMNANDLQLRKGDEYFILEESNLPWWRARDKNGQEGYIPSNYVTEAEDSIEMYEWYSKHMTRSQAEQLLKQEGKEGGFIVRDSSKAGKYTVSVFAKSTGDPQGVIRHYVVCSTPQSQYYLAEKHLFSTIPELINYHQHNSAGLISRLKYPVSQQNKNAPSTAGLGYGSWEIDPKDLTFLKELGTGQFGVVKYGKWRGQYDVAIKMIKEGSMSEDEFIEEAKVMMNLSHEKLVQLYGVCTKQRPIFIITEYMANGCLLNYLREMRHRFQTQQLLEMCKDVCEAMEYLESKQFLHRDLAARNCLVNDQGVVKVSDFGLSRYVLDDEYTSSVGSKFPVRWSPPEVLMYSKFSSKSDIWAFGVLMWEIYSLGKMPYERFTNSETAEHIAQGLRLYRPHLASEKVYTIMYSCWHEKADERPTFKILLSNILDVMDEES

IC50 [1] [µM] | IC50 (Ramos cells) [µM] | Structure (SMILES)
0.275 | 1.2 | Cc1cc(Nc2nn(C(C)C)c(=O)c3cc(N4CCOCC4)ccc23)n[nH]1 [Example F-1, 2-Isopropyl-4-(5-methyl-1H-pyrazol-3-ylamino)-7-morpholino-2H-phthalazin-1-one]
0.102 | 0.41 | Cc1cc(Nc2nn(C(C)C)c(=O)c3cc(N4CCN(C)CC4)ccc23)[nH]n1 [Example F-5, 2-Isopropyl-7-(4-methyl-piperazin-1-yl)-4-(5-methyl-2H-pyrazol-3-ylamino)-2H-phthalazin-1-one]
0.186 | 0.575 | Cc1cc(Nc2nn(C(C)C)c(=O)c3cc(OCCN(C)C)ccc23)n[nH]1 [Example ZD-5, 7-(2-Dimethylamino-ethoxy)-2-isopropyl-4-(5-methyl-1H-pyrazol-3-ylamino)-2H-phthalazin-1-one]
